What was measured:
[1] = system: BA/F3 cells expressing PDGFR; assay: Cell viability by MTS assay (MTS Assay 1); format: cell-based; details: for Activity compared to the imatinib and quizartinib controls (cell viability): MTS assay, FIGS. 2 and 3; for IC50: Mus musculus, BaF3, read-out: MTS Assay 1: concentration of compound required to reduce cell viability to 50%
Description: FIG. 2 illustrates the effect of the compounds of Examples 1 to 4 on Ba/F3 cells expressing PDGFR. Results for imatinib and quizartinib are provided as positive controls.
(§1) The effect of the compounds on cell viability were determined using MTS assay. MTS Cell Proliferation Assay Kit is a colorimetric method for sensitive quantification of viable cells in proliferation and cytotoxicity assay. The method is based on the reduction of MTS tetrazolium compound by viable cells to generate a colored formazan product that is soluble in cell culture media. BA/F3 cells expressing the receptor tyrosine kinase (either PDGFR [MTS Assay 1] or Flt3 [MTS Assay 2]) were cultured in standard culture conditions in a 96-well microtiter plate (final volume of 200 μl/well) in the absence or presence of the compound to be tested and were incubated for 20-48 hrs. MTS Reagent (20 μl/well) was added into each well & incubated for 0.5-4 hours at 37° C. in standard culture conditions. Absorbance at 490 nm was recorded using a plate reader.
(§2) Results are shown in FIGS. 2 and 3, and Table 2 (where IC50 indicates the concentration of compound required to reduce cell viability to 50%).
(§3) For the MTS Assay, the result indicates the concentration of compound required to reduce cell viability to 50%.

[2] = system: PDGFRβ signaling (PDGFRβ autophosphorylation, Shp2 phosphorylation) in HEK293 cells expressing human PDGFR; assay: Western blot of PDGFRβ signaling in HEK293 cell line model; format: cell-based; details: 20 ng/ml PDGF, FIG. 1
Description: FIG. 1 represents Western-blot analysis result of the compounds of Examples 1 and 2 in relation to inhibition of PDGFRβ and p-SHP2 signalling in HEK293 cells expressing PDGFRβ.
Human Embryonic kidney cells (HEK293) were constructed to express human PDGFRWT under the control of constitutive CMV promoter. Cells were grown in the presence of 20 ng/ml PDGF (the ligand for the PDGFRβ) to activate the PDGFRβ. Different concentrations of the compounds of Examples 1 and 2 were added to study their effect on the PDGFRβ-mediated signaling. Autophosphorylation of PDGFRβ and Shp2 phosphorylation were monitored by Western blotting and were used as the markers for PDGFRβ signaling. β-Actin was used as an internal control.

[3] = biological target: T1, BA/F3 cells expressing Flt3 (Homo sapiens, UniProt P36888, cells depend on it, form not given); assay: Cell viability by MTS assay (MTS Assay 2); format: cell-based; details: BA/F3 cells expressing Flt3, 20-48 hrs; symbol after the slash; read-out: MTS Assay 2: concentration of compound required to reduce cell viability to 50%
T1 sequence (P36888 1-993): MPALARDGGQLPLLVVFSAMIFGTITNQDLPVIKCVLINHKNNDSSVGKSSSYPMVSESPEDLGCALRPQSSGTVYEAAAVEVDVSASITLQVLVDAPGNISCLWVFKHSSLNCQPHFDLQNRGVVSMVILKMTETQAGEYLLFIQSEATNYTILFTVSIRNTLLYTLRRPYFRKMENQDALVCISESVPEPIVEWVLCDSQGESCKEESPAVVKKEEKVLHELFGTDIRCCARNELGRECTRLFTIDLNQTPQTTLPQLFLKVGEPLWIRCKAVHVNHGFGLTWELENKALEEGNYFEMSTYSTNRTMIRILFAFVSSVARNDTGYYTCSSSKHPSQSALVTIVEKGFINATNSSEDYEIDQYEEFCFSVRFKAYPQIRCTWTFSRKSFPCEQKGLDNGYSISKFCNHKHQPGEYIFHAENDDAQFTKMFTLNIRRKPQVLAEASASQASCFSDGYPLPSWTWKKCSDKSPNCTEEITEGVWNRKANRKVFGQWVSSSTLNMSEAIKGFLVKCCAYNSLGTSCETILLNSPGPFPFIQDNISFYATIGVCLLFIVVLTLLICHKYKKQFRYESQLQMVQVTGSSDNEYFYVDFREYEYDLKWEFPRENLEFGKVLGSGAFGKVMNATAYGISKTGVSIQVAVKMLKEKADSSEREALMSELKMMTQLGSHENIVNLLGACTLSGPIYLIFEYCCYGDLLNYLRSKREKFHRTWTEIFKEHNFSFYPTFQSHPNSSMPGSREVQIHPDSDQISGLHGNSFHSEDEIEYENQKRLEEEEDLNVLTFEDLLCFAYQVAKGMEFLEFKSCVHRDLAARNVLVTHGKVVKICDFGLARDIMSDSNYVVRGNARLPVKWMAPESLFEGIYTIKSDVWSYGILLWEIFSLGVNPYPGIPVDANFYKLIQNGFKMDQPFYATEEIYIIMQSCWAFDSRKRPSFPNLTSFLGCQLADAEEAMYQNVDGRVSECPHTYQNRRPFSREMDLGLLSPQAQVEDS
Description: FIG. 3 illustrates the effect of the compounds of Examples 5 to 7 on Ba/F3 cells expressing Flt3 kinase. Results for imatinib (negative control) and quizartinib (positive control) are also provided.
as §1, §2, §3

[4] = biological target: T2, Flt3 (Homo sapiens, UniProt P36888); assay: In vitro kinase assay ([γ-33P]-ATP); format: biochemical; details: ATP at apparent ATP-Km of the kinase
T2 sequence (P36888 27-993): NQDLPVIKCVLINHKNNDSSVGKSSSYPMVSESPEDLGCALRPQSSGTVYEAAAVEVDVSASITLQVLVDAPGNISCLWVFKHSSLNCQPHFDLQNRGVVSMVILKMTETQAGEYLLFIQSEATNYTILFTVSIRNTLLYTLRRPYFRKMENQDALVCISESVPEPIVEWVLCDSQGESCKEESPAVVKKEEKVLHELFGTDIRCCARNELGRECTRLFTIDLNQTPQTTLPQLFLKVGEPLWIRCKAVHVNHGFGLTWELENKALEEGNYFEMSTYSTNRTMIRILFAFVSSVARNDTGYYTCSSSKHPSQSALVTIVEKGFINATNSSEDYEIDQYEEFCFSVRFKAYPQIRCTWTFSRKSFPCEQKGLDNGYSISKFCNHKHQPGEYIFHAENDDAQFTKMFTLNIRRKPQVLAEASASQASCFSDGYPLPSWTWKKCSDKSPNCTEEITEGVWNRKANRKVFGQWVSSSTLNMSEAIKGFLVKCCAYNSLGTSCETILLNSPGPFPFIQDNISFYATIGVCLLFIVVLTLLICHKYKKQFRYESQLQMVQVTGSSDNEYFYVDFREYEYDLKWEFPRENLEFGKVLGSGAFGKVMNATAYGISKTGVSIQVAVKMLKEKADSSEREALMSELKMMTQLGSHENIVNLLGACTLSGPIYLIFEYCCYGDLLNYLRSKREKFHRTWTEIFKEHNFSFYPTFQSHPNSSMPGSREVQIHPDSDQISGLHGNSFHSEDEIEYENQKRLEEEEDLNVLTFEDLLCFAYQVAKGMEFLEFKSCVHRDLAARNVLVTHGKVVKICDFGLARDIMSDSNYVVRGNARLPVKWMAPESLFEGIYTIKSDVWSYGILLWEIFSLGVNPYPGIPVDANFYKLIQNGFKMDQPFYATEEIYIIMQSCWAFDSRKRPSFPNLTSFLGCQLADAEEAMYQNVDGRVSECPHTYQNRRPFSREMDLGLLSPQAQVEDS
Description: (§4) To determine the inhibitory activity of compounds, in vitro kinase assays were performed on respective enzymes purified from Sf9 insect cells or E. coli as recombinant GST-fusion proteins or His-tagged proteins.

[5] = biological target: CDK8 (Homo sapiens, UniProt P49336); assay: In vitro kinase assay ([γ-33P]-ATP); format: biochemical; details: ATP at apparent ATP-Km of the kinase
Sequence of CDK8 (P49336 whole entry): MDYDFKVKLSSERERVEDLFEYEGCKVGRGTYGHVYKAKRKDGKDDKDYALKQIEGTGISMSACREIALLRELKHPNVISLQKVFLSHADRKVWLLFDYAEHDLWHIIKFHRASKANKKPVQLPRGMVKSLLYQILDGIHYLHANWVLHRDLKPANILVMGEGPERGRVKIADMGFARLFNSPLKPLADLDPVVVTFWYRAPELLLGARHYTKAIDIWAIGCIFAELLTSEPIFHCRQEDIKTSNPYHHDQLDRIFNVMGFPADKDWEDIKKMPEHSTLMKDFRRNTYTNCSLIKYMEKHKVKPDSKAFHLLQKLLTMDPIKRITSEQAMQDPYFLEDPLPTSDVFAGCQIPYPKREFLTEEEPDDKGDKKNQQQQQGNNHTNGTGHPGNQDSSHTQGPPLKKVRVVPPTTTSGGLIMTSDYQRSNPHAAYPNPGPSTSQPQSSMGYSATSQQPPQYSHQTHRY
Sequence of CDK8 (P24863 whole entry partner): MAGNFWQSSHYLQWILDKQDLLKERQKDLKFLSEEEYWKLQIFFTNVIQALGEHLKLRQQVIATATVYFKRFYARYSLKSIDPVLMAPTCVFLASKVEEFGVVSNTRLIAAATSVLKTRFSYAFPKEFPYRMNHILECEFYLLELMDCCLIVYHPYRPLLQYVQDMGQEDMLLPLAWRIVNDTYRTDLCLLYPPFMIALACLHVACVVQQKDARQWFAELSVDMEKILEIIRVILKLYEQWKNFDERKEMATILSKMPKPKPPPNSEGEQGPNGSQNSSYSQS
Description: as §4

[6] = biological target: VEGFR-2 (Homo sapiens, UniProt P35968); assay: In vitro kinase assay ([γ-33P]-ATP); format: biochemical; details: ATP at apparent ATP-Km of the kinase
Sequence of VEGFR-2 (P35968 20-1356): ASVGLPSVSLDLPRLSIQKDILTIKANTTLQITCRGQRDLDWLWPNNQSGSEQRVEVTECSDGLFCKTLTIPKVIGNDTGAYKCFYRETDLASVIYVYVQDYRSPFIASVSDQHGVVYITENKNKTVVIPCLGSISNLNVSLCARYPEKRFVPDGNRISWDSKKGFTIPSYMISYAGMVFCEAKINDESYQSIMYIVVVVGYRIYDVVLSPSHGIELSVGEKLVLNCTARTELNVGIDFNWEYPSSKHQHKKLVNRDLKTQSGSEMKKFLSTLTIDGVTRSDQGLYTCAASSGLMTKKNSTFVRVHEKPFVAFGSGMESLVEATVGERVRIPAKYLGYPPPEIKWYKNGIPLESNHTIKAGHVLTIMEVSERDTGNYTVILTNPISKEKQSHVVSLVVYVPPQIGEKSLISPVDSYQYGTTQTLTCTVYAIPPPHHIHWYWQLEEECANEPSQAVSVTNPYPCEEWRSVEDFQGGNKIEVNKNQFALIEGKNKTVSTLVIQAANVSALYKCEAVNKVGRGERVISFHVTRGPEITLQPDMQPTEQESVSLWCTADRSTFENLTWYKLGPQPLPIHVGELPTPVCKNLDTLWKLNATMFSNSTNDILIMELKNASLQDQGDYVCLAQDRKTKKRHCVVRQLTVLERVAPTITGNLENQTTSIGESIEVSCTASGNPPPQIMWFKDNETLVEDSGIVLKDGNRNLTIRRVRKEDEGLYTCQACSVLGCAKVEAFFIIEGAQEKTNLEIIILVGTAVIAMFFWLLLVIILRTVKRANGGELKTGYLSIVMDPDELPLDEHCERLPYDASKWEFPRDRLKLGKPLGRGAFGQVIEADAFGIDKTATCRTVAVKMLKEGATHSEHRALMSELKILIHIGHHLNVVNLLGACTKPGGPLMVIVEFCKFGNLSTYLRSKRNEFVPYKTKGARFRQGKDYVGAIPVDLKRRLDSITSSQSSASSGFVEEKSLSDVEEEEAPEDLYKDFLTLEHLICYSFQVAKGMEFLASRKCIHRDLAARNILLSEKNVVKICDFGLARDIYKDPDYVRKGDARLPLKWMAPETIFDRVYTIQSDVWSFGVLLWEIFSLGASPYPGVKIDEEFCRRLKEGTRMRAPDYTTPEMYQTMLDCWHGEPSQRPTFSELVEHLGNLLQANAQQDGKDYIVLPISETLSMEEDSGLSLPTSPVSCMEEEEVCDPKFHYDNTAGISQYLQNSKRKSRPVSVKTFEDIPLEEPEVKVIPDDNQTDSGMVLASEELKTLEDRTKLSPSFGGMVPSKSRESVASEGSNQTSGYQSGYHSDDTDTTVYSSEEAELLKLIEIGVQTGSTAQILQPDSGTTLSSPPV
Description: as §4

[7] = biological target: PDGFR-α (Homo sapiens, UniProt P16234); assay: In vitro kinase assay ([γ-33P]-ATP); format: biochemical; details: ATP at apparent ATP-Km of the kinase
Sequence of PDGFR-α (P16234 24-1089): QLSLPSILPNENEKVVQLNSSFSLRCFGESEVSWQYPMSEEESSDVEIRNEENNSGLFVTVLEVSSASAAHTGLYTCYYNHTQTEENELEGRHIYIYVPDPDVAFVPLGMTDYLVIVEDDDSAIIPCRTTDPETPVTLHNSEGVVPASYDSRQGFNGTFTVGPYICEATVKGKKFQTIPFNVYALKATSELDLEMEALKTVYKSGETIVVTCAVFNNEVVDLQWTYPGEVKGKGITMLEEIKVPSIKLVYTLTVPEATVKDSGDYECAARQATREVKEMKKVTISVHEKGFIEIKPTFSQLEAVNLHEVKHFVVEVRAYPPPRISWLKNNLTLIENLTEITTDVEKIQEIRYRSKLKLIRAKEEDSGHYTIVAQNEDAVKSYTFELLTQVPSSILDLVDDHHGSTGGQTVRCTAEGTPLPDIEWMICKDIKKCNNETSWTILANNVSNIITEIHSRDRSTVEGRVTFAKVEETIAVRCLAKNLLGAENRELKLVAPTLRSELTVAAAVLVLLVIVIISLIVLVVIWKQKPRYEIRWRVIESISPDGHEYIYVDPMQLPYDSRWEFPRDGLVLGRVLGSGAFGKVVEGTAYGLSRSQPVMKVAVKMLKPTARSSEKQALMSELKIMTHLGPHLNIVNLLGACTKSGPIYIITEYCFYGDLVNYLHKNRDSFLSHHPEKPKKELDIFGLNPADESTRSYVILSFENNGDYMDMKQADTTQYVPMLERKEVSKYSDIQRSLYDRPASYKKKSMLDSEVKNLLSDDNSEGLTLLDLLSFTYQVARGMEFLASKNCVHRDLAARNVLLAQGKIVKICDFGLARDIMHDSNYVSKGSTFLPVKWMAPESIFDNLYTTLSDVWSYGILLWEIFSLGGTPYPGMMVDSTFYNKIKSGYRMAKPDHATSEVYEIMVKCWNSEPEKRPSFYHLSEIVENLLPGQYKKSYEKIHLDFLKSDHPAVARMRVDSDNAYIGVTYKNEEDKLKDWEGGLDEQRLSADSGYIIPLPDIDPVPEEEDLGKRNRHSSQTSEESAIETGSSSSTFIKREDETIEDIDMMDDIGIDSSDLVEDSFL
Description: as §4

[8] = biological target: PDGFR-β (Homo sapiens, UniProt P09619); assay: In vitro kinase assay ([γ-33P]-ATP); format: biochemical; details: ATP at apparent ATP-Km of the kinase
Sequence of PDGFR-β (P09619 33-1106): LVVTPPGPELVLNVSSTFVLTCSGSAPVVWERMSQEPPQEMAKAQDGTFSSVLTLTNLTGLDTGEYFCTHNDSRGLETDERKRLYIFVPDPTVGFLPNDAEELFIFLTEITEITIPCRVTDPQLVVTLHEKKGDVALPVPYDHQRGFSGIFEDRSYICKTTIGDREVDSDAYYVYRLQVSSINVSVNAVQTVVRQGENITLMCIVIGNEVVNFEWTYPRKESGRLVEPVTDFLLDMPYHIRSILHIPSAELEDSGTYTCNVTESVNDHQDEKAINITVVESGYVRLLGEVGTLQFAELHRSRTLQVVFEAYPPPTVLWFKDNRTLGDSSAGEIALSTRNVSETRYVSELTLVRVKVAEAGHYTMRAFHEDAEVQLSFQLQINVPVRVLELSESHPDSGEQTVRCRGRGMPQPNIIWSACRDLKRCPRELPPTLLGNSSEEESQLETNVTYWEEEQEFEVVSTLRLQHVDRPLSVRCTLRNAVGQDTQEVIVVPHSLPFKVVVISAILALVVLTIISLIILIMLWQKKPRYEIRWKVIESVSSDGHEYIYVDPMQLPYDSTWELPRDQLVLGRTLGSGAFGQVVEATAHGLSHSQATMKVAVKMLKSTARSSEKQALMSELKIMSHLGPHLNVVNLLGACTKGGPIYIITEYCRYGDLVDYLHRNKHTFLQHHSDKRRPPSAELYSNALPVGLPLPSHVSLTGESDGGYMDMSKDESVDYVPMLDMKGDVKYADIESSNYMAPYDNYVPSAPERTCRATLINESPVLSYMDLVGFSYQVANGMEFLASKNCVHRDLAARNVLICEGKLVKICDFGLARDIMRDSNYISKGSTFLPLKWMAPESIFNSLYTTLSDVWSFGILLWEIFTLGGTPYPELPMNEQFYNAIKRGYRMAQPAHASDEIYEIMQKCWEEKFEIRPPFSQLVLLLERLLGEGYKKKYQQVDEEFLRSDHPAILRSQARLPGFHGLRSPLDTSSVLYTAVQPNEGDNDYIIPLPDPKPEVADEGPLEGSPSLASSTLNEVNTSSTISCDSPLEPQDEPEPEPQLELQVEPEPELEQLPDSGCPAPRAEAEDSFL
Description: as §4

[9] = biological target: CDK19 (Homo sapiens, UniProt Q9BWU1); assay: In vitro kinase assay ([γ-33P]-ATP); format: biochemical; details: ATP at apparent ATP-Km of the kinase
Sequence of CDK19 (Q9BWU1 whole entry): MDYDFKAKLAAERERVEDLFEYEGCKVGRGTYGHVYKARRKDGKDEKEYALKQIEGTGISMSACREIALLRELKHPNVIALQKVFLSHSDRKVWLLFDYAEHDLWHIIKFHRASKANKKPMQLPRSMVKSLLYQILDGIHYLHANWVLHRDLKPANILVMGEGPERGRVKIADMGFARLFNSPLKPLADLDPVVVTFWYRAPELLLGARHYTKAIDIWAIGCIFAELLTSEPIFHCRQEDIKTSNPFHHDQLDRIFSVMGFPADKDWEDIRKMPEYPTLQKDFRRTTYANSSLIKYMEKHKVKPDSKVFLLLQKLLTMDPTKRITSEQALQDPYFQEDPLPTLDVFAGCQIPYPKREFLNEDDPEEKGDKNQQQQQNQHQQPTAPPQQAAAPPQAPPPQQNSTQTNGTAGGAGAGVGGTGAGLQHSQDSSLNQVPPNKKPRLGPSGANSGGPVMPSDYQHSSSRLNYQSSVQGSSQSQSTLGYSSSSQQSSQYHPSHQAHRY
Sequence of CDK19 (P24863 whole entry partner): as the sequence (P24863 whole entry partner) above
Description: as §4

| Structure (SMILES) | Activity compared to the imatinib and quizartinib controls (cell viability) [1] | Inhibition of PDGFRβ signaling (PDGFRβ autophosphorylation and Shp2 phosphorylation, Western blot) [2] | IC50 [3] [nM] | IC50 [1] [nM] | IC50 [4] [nM] | IC50 [5] [nM] | IC50 [6] [nM] | IC50 [7] [nM] | IC50 [8] [nM] | IC50 [9] [nM] |
| --- | --- | --- | --- | --- | --- | --- | --- | --- | --- | --- |
| Cn1nc(NC(=O)COc2ccc(-c3cnc4ccccn34)cn2)cc1C(F)(F)F [Example 1] | improved activity | able to inhibit PDGFRβ signaling | < 500 |  |  |  |  |  |  |  |
| Cc1ccc(NC(=O)COc2ccc(-c3cnc4ccccn34)cn2)cc1C(F)(F)F [Example 2] |  | able to inhibit PDGFRβ signaling |  | < 500 | < 500 |  |  |  |  |  |
| Cc1cnc(NC(=O)COc2ccc(-c3cnc4cnccn34)cn2)cc1C(F)(F)F [Example 3] | improved activity |  |  | < 500 | < 500 | < 500 | < 500 | < 500 | < 500 | < 500 |
| Cc1ccc(NC(=O)COc2ccc(-c3cnc4cnccn34)c(F)n2)cc1C(F)(F)F [Example 7] |  |  | < 500 |  |  |  |  |  |  |  |
| Cc1cnc(NC(=O)COc2ccc(-c3cnc4ccccn34)cn2)cc1C(F)(F)F [Example 8] |  |  |  | < 500 | < 500 | < 500 | < 500 | < 500 | < 500 | < 500 |
| Cn1nc(NC(=O)COc2ccc(-c3cnc4cnccn34)cn2)cc1C(F)(F)F [Example 9] |  |  |  | < 500 |  |  |  |  |  |  |
| Cc1ccc(NC(=O)CNc2ccc(-c3cnc4cnccn34)cc2)cc1C(F)(F)F [Example 15] |  |  | < 500 |  |  |  |  |  |  |  |
| O=C(Nc1ccc(-c2cnc3cnccn23)cc1)C1(C(=O)Nc2cc(C(F)(F)F)c(Cl)cn2)CC1 [Example 20] |  |  |  |  | > 5000 | < 500 | > 5000 | > 5000 | > 5000 | < 500 |
| Cn1nc(NC(=O)C2(C(=O)Nc3ccc(-c4cnc5cnccn45)cc3)CC2)cc1C(F)(F)F [Example 21] |  |  |  |  | > 5000 | < 500 | > 5000 | > 5000 | > 5000 | < 500 |
| Cn1nc(NC(=O)C2(C(=O)Nc3ccc(-c4cnc5cnccn45)c(F)c3)CC2)cc1C(F)(F)F [Example 22] |  |  |  |  | > 5000 | < 500 | 500 to 5000 | > 5000 | > 5000 | < 500 |

— patent US20220315587A1, “COMPOUNDS FOR TREATMENT OF CANCER” (SINOPSEE THERAPEUTICS, priority 2019, published 2022)
